Test results: ChEMBL document CHEMBL3232880, “The chemistry and biology of febrifugine and halofuginone” (Bioorg Med Chem, 2014)

Test system: Plasmodium berghei
Assay: Antimalarial activity against Plasmodium berghei infected in mouse
Type: functional

Structure (SMILES) | ED50 [mg/kg/day]
O=C(C[C@H]1NCCC[C@@H]1O)Cn1cnc2ccc(O)cc2c1=O | 0.3
O=C(C[C@H]1NCC[C@H](O)[C@@H]1O)Cn1cnc2ccccc2c1=O | 2.4
O=C(C[C@@H]1NCCC[C@H]1O)Cn1cnc2ccccc2c1=O (stereo in doubt; (+)-1) [FEBRIFUGINE] | 0.6

Test system: Plasmodium falciparum
Assay: Antimalarial activity against Plasmodium falciparum assessed as growth inhibition
Type: functional, organism-based

Structure (SMILES) | EC50 [nM]
O=c1c2ccccc2ncn1C[C@@H]1C[C@@H]2[C@@H](O)CCCN2CO1 | 3.7
COCO[C@H]1CCCN2CO[C@H](Cn3cnc4ccccc4c3=O)C[C@H]12 | 8.6
CC(=O)O[C@H]1CCCN(C(C)=O)[C@@H]1CC(=O)Cn1cnc2ccccc2c1=O | 910
CCOC(=O)N1CCC[C@H](O)[C@H]1CC(=O)Cn1cnc2ccccc2c1=O | 4800
O=C(C[C@H]1NCCCC1=O)Cn1cnc2ccccc2c1=O | 20

Test system: Plasmodium falciparum
Assay: Antimalarial activity against chloroquine-sensitive Plasmodium falciparum FCR-3 assessed as growth inhibition
Type: functional, organism-based

Structure (SMILES) | EC50 [nM]
O=C(C[C@@H]1NCCC[C@H]1O)Cn1cnc2ccccc2c1=O (stereo in doubt; (+)-1) [FEBRIFUGINE] | 0.076
O=C(C[C@@H]1NCCC[C@H]1O)Cn1cnc2ccccc2c1=O (stereo in doubt; (-)-1) [FEBRIFUGINE] | 200
